The target in one data set is T1, Cytochrome P450 1A2 (Homo sapiens, UniProt P05177).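 Further: PubChem cytochrome P450 panel assay, CYP1A2 panel member.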
T1 sequence (P05177 whole entry): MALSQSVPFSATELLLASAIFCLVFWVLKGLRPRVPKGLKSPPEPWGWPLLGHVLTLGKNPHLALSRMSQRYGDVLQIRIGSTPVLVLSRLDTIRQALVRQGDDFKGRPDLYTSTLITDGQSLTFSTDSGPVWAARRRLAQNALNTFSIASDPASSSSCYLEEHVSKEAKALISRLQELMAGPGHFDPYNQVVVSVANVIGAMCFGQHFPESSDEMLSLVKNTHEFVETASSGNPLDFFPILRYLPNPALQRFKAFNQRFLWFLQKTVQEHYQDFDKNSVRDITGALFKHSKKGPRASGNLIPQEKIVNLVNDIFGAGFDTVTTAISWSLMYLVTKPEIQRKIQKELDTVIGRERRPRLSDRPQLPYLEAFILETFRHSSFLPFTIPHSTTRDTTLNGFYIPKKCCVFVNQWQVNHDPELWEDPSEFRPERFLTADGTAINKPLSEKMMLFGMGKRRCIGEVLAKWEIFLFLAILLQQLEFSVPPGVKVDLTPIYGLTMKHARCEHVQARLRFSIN

A further data set addresses Cytochrome P450 3A4 (Homo sapiens, UniProt P08684).
In a further data set the target is Cytochrome P450 2C9 (Homo sapiens, UniProt P11712).
Cytochrome P450 2C9, sequence (P11712 whole entry): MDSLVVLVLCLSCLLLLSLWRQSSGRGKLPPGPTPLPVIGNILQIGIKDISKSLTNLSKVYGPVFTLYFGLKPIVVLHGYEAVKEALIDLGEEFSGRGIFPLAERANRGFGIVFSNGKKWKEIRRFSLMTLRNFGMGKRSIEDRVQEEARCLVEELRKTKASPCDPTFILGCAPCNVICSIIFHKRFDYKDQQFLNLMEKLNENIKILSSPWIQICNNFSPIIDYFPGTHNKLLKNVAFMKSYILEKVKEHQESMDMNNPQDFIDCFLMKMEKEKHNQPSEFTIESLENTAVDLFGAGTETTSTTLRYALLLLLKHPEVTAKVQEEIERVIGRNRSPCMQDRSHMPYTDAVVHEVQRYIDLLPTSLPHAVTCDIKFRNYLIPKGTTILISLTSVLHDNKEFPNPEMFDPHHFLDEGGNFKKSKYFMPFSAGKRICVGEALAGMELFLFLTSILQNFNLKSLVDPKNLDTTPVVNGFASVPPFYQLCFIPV
The next data set deals with T2, Protein skinhead-1 (Caenorhabditis elegans, UniProt P34707).
T2 sequence (P34707 whole entry): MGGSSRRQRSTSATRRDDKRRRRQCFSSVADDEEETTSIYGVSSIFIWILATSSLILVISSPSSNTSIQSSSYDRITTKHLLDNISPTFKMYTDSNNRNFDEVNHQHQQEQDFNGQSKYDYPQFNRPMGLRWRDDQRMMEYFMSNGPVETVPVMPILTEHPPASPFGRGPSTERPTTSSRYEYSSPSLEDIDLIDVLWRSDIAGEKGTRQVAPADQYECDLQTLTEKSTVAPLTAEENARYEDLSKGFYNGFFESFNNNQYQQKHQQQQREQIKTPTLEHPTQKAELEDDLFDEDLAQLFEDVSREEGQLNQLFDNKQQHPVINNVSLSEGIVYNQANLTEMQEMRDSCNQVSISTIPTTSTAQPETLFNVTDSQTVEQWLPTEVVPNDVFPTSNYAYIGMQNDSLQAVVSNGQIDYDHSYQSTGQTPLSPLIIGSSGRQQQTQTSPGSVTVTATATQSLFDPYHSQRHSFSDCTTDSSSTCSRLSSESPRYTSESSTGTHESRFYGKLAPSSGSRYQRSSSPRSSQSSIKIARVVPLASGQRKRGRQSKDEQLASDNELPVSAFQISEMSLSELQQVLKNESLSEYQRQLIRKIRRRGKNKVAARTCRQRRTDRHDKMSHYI
The format is functional.

A further data set deals with Cytochrome P450 2C19 (Homo sapiens, UniProt P33261). The data set can be described thus: Cytochrome panel assay with activity outcomes. Panel member name: p450-cyp2c19 Compounds with AC50 equal or less than 10 uM are considered active. The format is functional.
Cytochrome P450 2C19, sequence (P33261 whole entry): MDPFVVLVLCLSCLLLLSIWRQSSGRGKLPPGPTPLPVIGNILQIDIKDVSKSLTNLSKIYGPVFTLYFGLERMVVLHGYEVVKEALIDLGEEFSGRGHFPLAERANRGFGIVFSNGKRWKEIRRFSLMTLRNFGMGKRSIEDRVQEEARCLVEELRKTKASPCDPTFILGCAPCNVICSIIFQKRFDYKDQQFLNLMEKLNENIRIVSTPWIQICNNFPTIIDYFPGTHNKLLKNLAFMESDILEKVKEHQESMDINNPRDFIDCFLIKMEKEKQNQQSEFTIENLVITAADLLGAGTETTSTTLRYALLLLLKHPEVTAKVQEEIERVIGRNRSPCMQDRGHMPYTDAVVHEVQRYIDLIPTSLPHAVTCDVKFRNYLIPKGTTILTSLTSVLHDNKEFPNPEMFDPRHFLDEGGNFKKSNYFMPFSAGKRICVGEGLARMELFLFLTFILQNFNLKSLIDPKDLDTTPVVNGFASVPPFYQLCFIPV
The target in a further data set is Paired box protein Pax-8 (Homo sapiens, UniProt Q06710). Description: PAX8 transcriptional activity inhibition in RMG-I – RMG-I cells, luciferase, cherry-pick, dose response (AID 687027).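 Further: luciferase reporter driven by Pax8 target thyroperoxidase promoter measured by SteadyGlo luminescence.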 The format is functional, cell-based.
Paired box protein Pax-8, sequence (Q06710 whole entry): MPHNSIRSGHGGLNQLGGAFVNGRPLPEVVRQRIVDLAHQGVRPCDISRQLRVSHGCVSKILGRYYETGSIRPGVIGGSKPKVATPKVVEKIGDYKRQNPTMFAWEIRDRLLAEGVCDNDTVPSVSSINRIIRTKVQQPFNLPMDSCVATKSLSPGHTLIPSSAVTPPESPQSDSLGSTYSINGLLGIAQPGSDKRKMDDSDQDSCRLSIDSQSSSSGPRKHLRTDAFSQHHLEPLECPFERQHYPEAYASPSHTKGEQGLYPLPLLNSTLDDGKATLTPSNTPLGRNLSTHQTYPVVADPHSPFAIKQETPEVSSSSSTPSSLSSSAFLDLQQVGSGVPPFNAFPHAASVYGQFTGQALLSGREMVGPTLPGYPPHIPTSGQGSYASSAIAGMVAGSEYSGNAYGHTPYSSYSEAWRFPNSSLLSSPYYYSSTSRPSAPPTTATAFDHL
Data set [1] can be described thus: Luminescence Cell-Based Dose Confirmation HTS to Identify Activators of 5'UTR Stem-Loop Driven Alpha-Synuclein mRNA Translation in H4 Neuroglioblastoma Cells. [Related pubchem assays: 1829 (Project Summary), 1814 (Primary HTS)]. The format is functional.
Data set [2] is described as follows: Luminescence Cell-Based Dose Response HTS to Identify Activators of Luciferase Translation or Activity in H4 […] Cells. [Related pubchem assays: 1829 (Project Summary), 1814 (Primary HTS)]. The format is functional.
For another data set, the system named is H4. The data set can be described thus: Luminescence Cell-Based Dose Response HTS to Identify Activators of 5'UTR Stem-Loop Driven Prion Protein mRNA Translation in H4 Neuroglioblastoma Cells. [Related pubchem assays: 1829 (Project Summary), 1814 (Primary HTS)]. It is filed as functional. The following applies: Homo sapiens.
Data set [3] deals with Streptococcus sp. 'group A'. Description: Streptococcus pyogenes SK(-)GAS viability under kanamycin – luminescence, BacTiterGlo, confirmation, counter-screen for streptokinase expression inhibitor project, dose response (AID 1900). The format is functional, organism-based.
For the next data set, the target named is T3, Streptokinase A (Streptococcus pyogenes serotype M1, UniProt P10520).
T3 sequence (P10520 whole entry): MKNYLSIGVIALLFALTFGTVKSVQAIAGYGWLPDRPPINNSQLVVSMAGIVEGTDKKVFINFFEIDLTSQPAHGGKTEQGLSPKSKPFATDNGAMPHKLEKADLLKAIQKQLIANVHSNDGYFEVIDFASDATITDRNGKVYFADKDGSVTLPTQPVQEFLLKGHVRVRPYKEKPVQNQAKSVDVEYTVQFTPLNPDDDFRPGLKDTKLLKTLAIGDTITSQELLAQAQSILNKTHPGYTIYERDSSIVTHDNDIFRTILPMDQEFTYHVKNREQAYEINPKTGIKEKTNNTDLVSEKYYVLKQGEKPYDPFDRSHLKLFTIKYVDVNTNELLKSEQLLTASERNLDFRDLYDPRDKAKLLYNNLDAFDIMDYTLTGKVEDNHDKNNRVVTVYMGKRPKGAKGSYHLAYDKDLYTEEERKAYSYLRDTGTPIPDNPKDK
The data set can be described thus: viability-normalized secreted streptokinase activity reduction – plasminogen activation absorbance, OD405, dose response (AID 1914).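 Further: secreted streptokinase activity via plasminogen activation per viability signal from cell pellet.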 It is filed as functional, Streptococcus pyogenes M1 GAS.

A further data set concerns Streptococcus. Description: GAS UMAA2166 growth inhibition – luminescence, BacTiterGlo, counter-screen for streptokinase expression inhibitor project, dose response (AID 1915).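 Further: potency for reduction of bacterial viability or growth.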 It is filed as functional, organism-based.

The record followed here is ChEMBL document CHEMBL1201862, “PubChem BioAssay data set” (2004).

Calls of active or inactive are those of the source. Where only a bound is given, the exact number is not on record here.

Cytochrome P450 3A4, sequence (P08684 whole entry): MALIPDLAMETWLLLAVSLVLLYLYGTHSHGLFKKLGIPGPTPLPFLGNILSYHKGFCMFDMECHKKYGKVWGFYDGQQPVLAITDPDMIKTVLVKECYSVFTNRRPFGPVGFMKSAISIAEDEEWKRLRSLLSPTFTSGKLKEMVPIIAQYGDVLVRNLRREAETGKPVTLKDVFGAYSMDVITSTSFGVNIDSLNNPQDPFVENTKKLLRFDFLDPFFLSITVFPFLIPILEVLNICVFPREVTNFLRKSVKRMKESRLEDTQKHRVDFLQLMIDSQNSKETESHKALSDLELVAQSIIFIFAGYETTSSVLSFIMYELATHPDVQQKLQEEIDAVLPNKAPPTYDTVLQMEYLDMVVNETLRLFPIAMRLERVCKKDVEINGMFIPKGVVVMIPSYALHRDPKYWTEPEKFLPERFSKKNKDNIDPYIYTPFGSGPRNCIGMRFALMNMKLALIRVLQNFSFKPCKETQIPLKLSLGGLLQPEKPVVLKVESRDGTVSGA

For the compound `Nc1nc(SCc2ccccc2)c2ncn(Cc3ccccc3)c2n1`, the concentration at half-maximal activity (AC50) on Cytochrome P450 1A2 was 0.251 µM (inconclusive); on Cytochrome P450 3A4, 3.98 µM (inconclusive); at Cytochrome P450 2C9, 3.16 µM (inconclusive).

For `COc1cc(-c2nnc(COC(=O)c3c4c(nc5ccccc35)CCCC4)o2)cc(OC)c1OC`, at Cytochrome P450 1A2, the AC50 is 14.1 µM (inconclusive). On to `COc1ccccc1NC(=O)CSc1nnc(-c2ccncc2)o1`, for which, on Protein skinhead-1, the IC50 was > 100 µM (inactive). `N#Cc1c(NC(=O)CCC(=O)O)ccc2ccccc12`: the AC50 entry at Cytochrome P450 2C19 was “inconclusive”. Turning to `Cn1c(S)nnc1Cc1c[nH]c2ccccc12`, the IC50 at Protein skinhead-1 is > 100 µM (inactive). With `Cc1cc(C(=O)CSC(=S)SC(C)(C)C)ccc1Cl`, the concentration at half-maximal activity (AC50) at Cytochrome P450 3A4 is 3.16 µM (inconclusive); at Cytochrome P450 2C9 it was 5.01 µM (inconclusive).

Turning to `Cc1ccc2c[nH]nc2c1NC(=S)NC(=O)c1ccccc1`, the half-maximal activity concentration (AC50) at Cytochrome P450 2C19 (read-out: AC50) was 11.2 µM (inconclusive). In the case of `CC(=O)N1CCC2(CC1)CN(C(=O)Nc1cccc(C#N)c1)C2`, at Cytochrome P450 1A2, the concentration at half-maximal activity (AC50) was 12.6 µM (inconclusive).

For `CN1CCc2nc(N)nc(-c3nc(N)nc4c3CN(C)CC4)c2C1`, on Cytochrome P450 2C19, the concentration at half-maximal activity (AC50) result is given as “inconclusive”. Take `CCC[C@@H]1C[C@@]1(CCC)C(NC(=O)c1cccs1)c1ccc(Cl)cc1` (stereo not given in full): the AC50 on Cytochrome P450 1A2 was 10 µM (inconclusive); on Cytochrome P450 2C9, 5.01 µM (inconclusive). Regarding `COc1ccc(CNC(=O)CN(CC2CCCO2)C(=O)CNS(=O)(=O)c2ccccc2)cc1` (stereo not given), the AC50 is 3.98 µM (inconclusive) on Cytochrome P450 3A4 and 22.4 µM (inconclusive) at Cytochrome P450 2C9. For `Cc1ccc(F)c(C2C3C=CCC(c4cccc(-c5ccc(N(C)C)cc5)c4)C3C(=O)N2Cc2ccccc2)c1` (stereo not given), the IC50 on Protein skinhead-1 is > 100 µM (inactive). On to `CC(NC(=O)c1cc(COc2ccccc2)on1)c1nccs1` (stereo not given), for which the IC50 on Protein skinhead-1 is > 100 µM (inactive).

Regarding `CCOc1cccc(CNCCNC(=O)c2nonc2N)c1`, the AC50 on Cytochrome P450 1A2 is 39.8 µM (inconclusive); on Cytochrome P450 3A4, 5.01 µM (inconclusive).

With `O=c1cnc2cnc(Oc3ccccc3)nc2n1C1CC1`, the AC50 on Cytochrome P450 2C19 (read-out: AC50) is 39.8 µM (inconclusive). As for `CCOC(=O)C1=C(N)Oc2ccc(Br)cc2[C@@H]1[C@@H](C#N)C(=O)OCC`, the AC50 on Cytochrome P450 2C19 (read-out: AC50) was 25.1 µM (inconclusive). As for `Cc1ccccc1-c1cncnc1N1CCN(C)CC1`, the AC50 at Cytochrome P450 2C19 (read-out: AC50) is 39.8 µM (inconclusive); at Cytochrome P450 1A2, 15.8 µM (inconclusive). On to `Cn1cnc([N+](=O)[O-])c1SCC(=O)O`, for which the AC50 entry on Cytochrome P450 2C19 was “inconclusive”. Consider `O=S(=O)(NC1CCCCC1N1CCN(c2ccccc2F)CC1)c1ccccc1` (stereo not given), for which, at Paired box protein Pax-8, the AC50 is 23.1 µM (active).

On to `COC(=O)C1=C(c2ccc(F)cc2OCc2ccccc2)C[C@@H]2CC[C@H]1N2C(=O)NCc1ccc2[nH]ccc2c1`, for which, at Paired box protein Pax-8, the AC50 is 18.2 µM (active). For `CC(C)(C)COS(=O)OCC(C)(C)C`, on Cytochrome P450 2C19, the AC50 result is reported as “inconclusive”. As to `c1ccc(N2OCC3Cn4c(nc5ccccc54)C32)cc1` (stereo not given), the values for the EC50 (in [1]; in data set [2]; in the data set on H4) were 30.3 µM (active), 8.69 µM (active) and 44.2 µM (active), respectively. On the same counts, the results for `C=CCSc1n[nH]c(-c2ccccc2)n1` are 9.22 µM (active), 8.06 µM (active) and 75.3 µM (active).

As to `Cc1cc(NC(=O)COc2cccc(Oc3ccccc3)c2)no1`, the concentration giving a half-maximal response (EC50) (in data set [1]; in data set [2]; in the data set on H4) was > 120 µM (not active) each time.

With `O=C(/C=C\Nc1ccc(Br)cc1)c1cccnc1`, the IC50 at Protein skinhead-1 was 71.4 µM (inactive). As for `N#CCCn1c(=O)c(-c2cc(F)cc(F)c2)nc2cnc(Nc3ccccc3)nc21`, the concentration at half-maximal activity (AC50) at Cytochrome P450 1A2 is 3.16 µM (inconclusive). As to `N#Cc1c2c(c(-n3cnc4ccccc43)n3c1nc1ccccc13)CCC2`, the concentration at half-maximal activity (AC50) is 25.1 µM (inconclusive) at Cytochrome P450 1A2, 3.16 µM (inconclusive) at Cytochrome P450 3A4 and 10 µM (inconclusive) on Cytochrome P450 2C9. As to `CCCSc1cc(N2CCCC2)nc(-c2ccccc2)n1`, the 50% effective concentration (EC50) in [3] is 35 µM (active); at Streptokinase A it was > 150 µM (not active); in the data set on Streptococcus it was > 150 µM (not active). The half-maximal activity concentration (AC50) at Cytochrome P450 2C19 (read-out: AC50) was 39.8 µM (inconclusive); at Cytochrome P450 2C9, 2 µM (inconclusive). In the case of `O=C1CC(N2CCN(C(c3ccccc3)c3ccccc3)CC2)C(=O)N1Cc1ccc(N2CCCC2=O)cc1` (stereo not given), the concentration at half-maximal activity (AC50) at Cytochrome P450 2C19 (read-out: AC50) was 5.01 µM (inconclusive); on Cytochrome P450 3A4 it was 22.4 µM (inconclusive). For `O=C1c2ccccc2CCc2ccc(Br)cc21`, the half-maximal inhibitory concentration (IC50) at Protein skinhead-1 is 35.6 µM (active).

`Cc1oc(-c2cccs2)[n+]([O-])c1C`: the half-maximal activity concentration (AC50) at Cytochrome P450 1A2 is 25.1 µM (inconclusive). In the case of `Oc1ccc(C2C(c3ccccc3)=NN=C(c3ccccc3F)N2O)c(O)c1` (stereo not given), the EC50 in data set [1] was 95.8 µM (active); in [2], 72.3 µM (active); in the data set with H4, > 120 µM (not active).

Regarding `CCOc1ccc(/C=C2\C(=O)c3ccccc3OC2c2ccccc2)cc1` (stereo not given), the concentration at half-maximal activity (AC50) was 12.6 µM (inconclusive) on Cytochrome P450 1A2 and 10 µM (inconclusive) at Cytochrome P450 2C9. Take `COc1ccc(-n2c(=O)c(-c3ccc(Cl)cc3)nc3cncnc32)cc1`: at Cytochrome P450 1A2, the half-maximal activity concentration (AC50) was 5.01 µM (inconclusive).

For the compound `COc1ccc(NC(=O)CSc2n[nH]c(N)n2)cc1OC`, the EC50 (in data set [1]; in data set [2]; with H4) was > 120 µM (not active) each time. In the case of `CCCc1nnc(NC(=O)c2cccs2)s1`, the results for the AC50 at Cytochrome P450 2C19 (read-out: AC50) and on Cytochrome P450 2C9 were 25.1 µM (inconclusive) and 12.6 µM (inconclusive), respectively.

On to `CCCCOc1ccccc1N`, for which the AC50 on Cytochrome P450 1A2 and at Cytochrome P450 2C9 was 39.8 µM (inconclusive) each time. Consider `COc1cc(C2C3=C(COC3=O)Oc3cc4c(cc32)OCO4)cc(OC)c1O` (stereo not given), for which the half-maximal activity concentration (AC50) on Paired box protein Pax-8 was 1.74 µM (active). With `COC(=O)c1ccc(CC2(C)C(=O)Nc3ccc(-c4cccc(C(F)(F)F)c4)cc32)o1` (stereo not given), at Protein skinhead-1, the IC50 is 79.3 µM (inactive). On to `C/C(=C\C(=O)c1ccc(Br)cc1)NCc1ccccc1`, for which the concentration for a half-maximal effect (EC50) in [1] was > 120 µM (not active); in data set [2] it was 9.58 µM (active); in the data set with H4, 90.3 µM (active). Consider `CC1(C(=O)NS(=O)(=O)c2cccs2)CCN1C(=O)Cc1ccc(-c2ccccc2)cc1` (stereo not given), for which, at Protein skinhead-1, the IC50 is > 100 µM (inactive).
